Source: patent US7138361B2, “Herbicidal heterocycles” (E. I. du Pont de Nemours and Company, priority 2000, dated 2006)

Columns and labels:
Format in all cases: in vivo
rice (Oryza saliva) [1] = assay: Test C flooded paddy test; details: for Rice plant response rating: Flooded Paddy, scale 0 to 100, 0 no effect, 100 complete control; for Plant response rating, Rice: flooded paddy test, scale 0 to 100 (0 no effect, 100 complete control)
Protocol: (§1) At the same time, plants selected from these crop and weed species and also winter barley (Hordeum vulgare), blackgrass (Alopecurus myosuroides), canary grass (Phalaris minor), chickweed (Stellaria media), downy brome (Bromus tectorum), green foxtail (Setaria viridis), Italian ryegrass (Lolium multiflorum), wheat (Triticum aestivum), wild oat (Avena fatua) and windgrass (Apera spica-venti) were treated with postemergence applications of some of the test chemicals formulated in the same manner. Plants ranged in height from 2 to 18 cm (1- to 4-leaf stage) for postemergence treatments. Plant species in the flooded paddy test consisted of rice (Oryza saliva), smallflower flatsedge (Cyperus difformis), duck salad (Heteranthera limosa) and barnyardgrass (Echinochloa crus-galli) grown to the 2-leaf stage for testing. Treated plants and controls were maintained in a greenhouse for 12 to 14 days, after which time all species were compared to controls and visually evaluated. Plant response ratings, summarized in Table C, are based on a scale of 0 to 100 where 0 is no effect and 100 is complete control. A dash (-) response means no test result.

[2] = system: barnyardgrass (Echinochloa crus-galli); assay: Test C flooded paddy test; details: for Barnyardgrass plant response rating: Flooded Paddy, scale 0 to 100, 0 no effect, 100 complete control; for Plant response rating, Barnyardgrass: flooded paddy test, scale 0 to 100 (0 no effect, 100 complete control)
Protocol: as §1

[3] = system: duck salad (Heteranthera limosa); assay: Test C flooded paddy test; details: for Ducksalad plant response rating: Flooded Paddy, scale 0 to 100, 0 no effect, 100 complete control; for Plant response rating, Ducksalad: flooded paddy test, scale 0 to 100 (0 no effect, 100 complete control)
Protocol: as §1

[4] = system: smallflower flatsedge (Cyperus difformis); assay: Test C flooded paddy test; details: for Flatsedge plant response rating: Flooded Paddy, scale 0 to 100, 0 no effect, 100 complete control; for Plant response rating, Flatsedge: flooded paddy test, scale 0 to 100 (0 no effect, 100 complete control)
Protocol: as §1

[5] = system: crabgrass (Digitaria sanguinalis); assay: Test B preemergence
Description: (§2) Seeds selected from barnyardgrass (Echinochloa crus-galli), Surinam grass (Brachiaria decumbens), cocklebur (Xanthium strumarium), corn (Zea mays), crabgrass (Digitaria sanguinalis), giant foxtail (Setaria faberii), lambsquarters (Chenopodium album), morning glory (Ipomoea hederacea), pigweed (Amaranthus retroflexus), rice (Oryza saliva) and velvetleaf (Abutilon theophrasti) were planted and treated preemergence with test chemicals formulated in a non-phytotoxic solvent mixture which included a surfactant.
(§3) At the same time, plants selected from these crop and weed species and also blackgrass (Alopecurus myosuroides), wheat (Triticum aestivum) and wild oat (Avena fatua) were treated with postemergence applications of test chemicals formulated in the same manner. Plants ranged in height from 2 to 18 cm (1- to 4-leaf stage) for postemergence treatments. Plant species in the flooded paddy test consisted of rice (Oryza saliva), smallflower flatsedge (Cyperus difformis), duck salad (Heteranthera limosa) and barnyardgrass (Echinochloa crus-galli) grown to the 2-leaf stage for testing. Treated plants and controls were maintained in a greenhouse for 13 to 15 days, after which time all species were compared to controls and visually evaluated. Plant response ratings, summarized in Table B, are based on a scale of 0 to 100 where 0 is no effect and 100 is complete control. A dash (-) response means no test result.

[6] = system: morning glory (Ipomoea hederacea); assay: Test B preemergence
Description: as §2, §3

[7] = system: velvetleaf (Abutilon theophrasti); assay: Test B preemergence
Description: as §2, §3

[8] = system: giant foxtail (Setaria faberii); assay: Test B preemergence
Description: as §2, §3

rice (Oryza saliva) [9] = assay: Test B preemergence
Description: as §2, §3

[10] = system: barnyardgrass (Echinochloa crus-galli); assay: Test B preemergence
Description: as §2, §3

[11] = system: cocklebur (Xanthium strumarium); assay: Test B preemergence
Description: as §2, §3

[12] = system: Surinam grass (Brachiaria decumbens); assay: Test B preemergence
Description: as §2, §3

[13] = system: pigweed (Amaranthus retroflexus); assay: Test B preemergence
Description: as §2, §3

[14] = system: lambsquarters (Chenopodium album); assay: Test B preemergence
Description: as §2, §3

corn (Zea mays) [15] = assay: Test B preemergence
Description: as §2, §3

[16] = system: crabgrass (Digitaria sanguinalis); assay: Test B postemergence; details: 13 to 15 days
Description: as §2, §3

[17] = system: morning glory (Ipomoea hederacea); assay: Test B postemergence; details: Rate 500 g/ha, scale 0 to 100, 0 is no effect, 100 is complete control, 13 to 15 days
Description: as §2, §3

[18] = system: velvetleaf (Abutilon theophrasti); assay: Test B postemergence; details: Rate 500 g/ha, scale 0 to 100, 0 is no effect, 100 is complete control, 13 to 15 days
Description: as §2, §3

[19] = system: giant foxtail (Setaria faberii); assay: Test B postemergence; details: 13 to 15 days
Description: as §2, §3

[20] = system: barnyardgrass (Echinochloa crus-galli); assay: Test B postemergence; details: 13 to 15 days
Description: as §2, §3

[21] = system: wheat (Triticum aestivum); assay: Test B postemergence; details: Rate 500 g/ha, scale 0 to 100, 0 is no effect, 100 is complete control, 13 to 15 days
Description: as §2, §3

wild oat (Avena fatua) = assay: Test B postemergence; details: Rate 500 g/ha, scale 0 to 100, 0 is no effect, 100 is complete control, 13 to 15 days
Description: as §2, §3

[22] = system: Surinam grass (Brachiaria decumbens); assay: Test B postemergence; details: 13 to 15 days
Description: as §2, §3

[23] = system: pigweed (Amaranthus retroflexus); assay: Test B postemergence; details: Rate 500 g/ha, scale 0 to 100, 0 is no effect, 100 is complete control, 13 to 15 days
Description: as §2, §3

[24] = system: lambsquarters (Chenopodium album); assay: Test B postemergence; details: Rate 500 g/ha, scale 0 to 100, 0 is no effect, 100 is complete control, 13 to 15 days
Description: as §2, §3

[25] = system: blackgrass (Alopecurus myosuroides); assay: Test B postemergence; details: 13 to 15 days
Description: as §2, §3

corn (Zea mays) [26] = assay: Test B postemergence; details: 13 to 15 days
Description: as §2, §3

[27] = Preemergence, Rate 500 g/ha, scale 0 to 100, 0 no effect, 100 complete control
[28] = preemergence, Rate 125 g/ha, scale of 0 to 100 where 0 is no effect and 100 is complete control, 13 to 15 days
[29] = Rate 125 g/ha, scale 0 (no effect) to 100 (complete control)
[30] = Rate 500 g/ha, scale 0 to 100, 0 is no effect, 100 is complete control

Which results are given for `CC(C)(C)c1ccn(C2CCN(c3cccc(S(C)(=O)=O)c3)C2=O)n1` (stereo not shown) [Compound 102]?
Rice plant response rating (rice (Oryza saliva) [1]; Rate 250 g/ha): 0; Rice plant response rating (rice (Oryza saliva) [1]; Rate 500 g/ha): 0; Plant response rating, Rice (rice (Oryza saliva) [1]; Rate 62 g/ha): 0; Plant response rating, Rice (rice (Oryza saliva) [1]; Rate 125 g/ha): 0; Barnyardgrass plant response rating ([2]; Rate 250 g/ha): 0; Barnyardgrass plant response rating ([2]; Rate 500 g/ha): 0; Plant response rating, Barnyardgrass ([2]; Rate 62 g/ha): 0; Plant response rating, Barnyardgrass ([2]; Rate 125 g/ha): 0; Ducksalad plant response rating ([3]; Rate 250 g/ha): 0; Ducksalad plant response rating ([3]; Rate 500 g/ha): 0; Plant response rating, Ducksalad ([3]; Rate 62 g/ha): 0; Plant response rating, Ducksalad ([3]; Rate 125 g/ha): 0; Flatsedge plant response rating ([4]; Rate 250 g/ha): 30; Flatsedge plant response rating ([4]; Rate 500 g/ha): 60; Plant response rating, Flatsedge ([4]; Rate 62 g/ha): 0; Plant response rating, Flatsedge ([4]; Rate 125 g/ha): 30; Plant response rating, Crabgrass [5, 27]: 90; Plant response rating, Crabgrass [5, 28]: 0; Plant response rating, Morningglory [6, 27]: 0; Plant response rating, Morningglory [6, 28]: 0; Plant response rating, Velvetleaf [7, 27]: 0; Plant response rating, Velvetleaf [7, 28]: 0; Plant response rating, Foxtail, Giant [8, 27]: 0; Plant response rating, Foxtail, Giant [8, 28]: 0; Plant response rating, Rice (rice (Oryza saliva) [9]; [27]): 0; Plant response rating, Rice (rice (Oryza saliva) [9]; [28]): 0; Plant response rating, Barnyardgrass [10, 27]: 0; Plant response rating, Barnyardgrass [10, 28]: 0; Plant response rating, Cocklebur [11, 27]: 0; Plant response rating, Cocklebur [11, 28]: 0; Plant response rating, Surinam grass [12, 27]: 0; Plant response rating, Surinam grass [12, 28]: 0; Plant response rating, Pigweed [13, 27]: 0; Plant response rating, Pigweed [13, 28]: 0; Plant response rating, Lambsquarters [14, 27]: 0; Plant response rating, Lambsquarters [14, 28]: 0; Plant response rating, Corn (corn (Zea mays) [15]; [27]): 0; Plant response rating, Corn (corn (Zea mays) [15]; [28]): 0; Plant response rating, Crabgrass [16, 29]: 0; Plant response rating, Crabgrass [16, 30]: 0; Plant response rating, Morningglory [17]: 0; Plant response rating, Velvetleaf [18]: 0; Plant response rating, Foxtail, Giant [19, 29]: 0; Plant response rating, Foxtail, Giant [19, 30]: 0; Plant response rating, Barnyardgrass [20, 29]: 0; Plant response rating, Barnyardgrass [20, 30]: 0; Plant response rating, Wheat [21]: 0; Plant response rating, Wild Oat (wild oat (Avena fatua)): 0; Plant response rating, Surinam grass [22, 29]: 0; Plant response rating, Surinam grass [22, 30]: 0; Plant response rating, Pigweed [23]: 0; Plant response rating, Lambsquarters [24]: 0; Plant response rating, Blackgrass [25, 29]: 0; Plant response rating, Blackgrass [25, 30]: 0; Plant response rating, Corn (corn (Zea mays) [26]; [29]): 0; Plant response rating, Corn (corn (Zea mays) [26]; [30]): 0

What does the source list for `CC(C)(C)c1ccn(C2CCN(c3ccc4c(c3)CCC4)C2=O)n1` (stereo not shown) [Compound 105]?
Rice plant response rating (rice (Oryza saliva) [1]; Rate 250 g/ha): 20; Rice plant response rating (rice (Oryza saliva) [1]; Rate 500 g/ha): 30; Plant response rating, Rice (rice (Oryza saliva) [1]; Rate 62 g/ha): 0; Plant response rating, Rice (rice (Oryza saliva) [1]; Rate 125 g/ha): 0; Barnyardgrass plant response rating ([2]; Rate 250 g/ha): 20; Barnyardgrass plant response rating ([2]; Rate 500 g/ha): 60; Plant response rating, Barnyardgrass ([2]; Rate 62 g/ha): 0; Plant response rating, Barnyardgrass ([2]; Rate 125 g/ha): 0; Ducksalad plant response rating ([3]; Rate 250 g/ha): 0; Ducksalad plant response rating ([3]; Rate 500 g/ha): 0; Plant response rating, Ducksalad ([3]; Rate 62 g/ha): 0; Plant response rating, Ducksalad ([3]; Rate 125 g/ha): 0; Flatsedge plant response rating ([4]; Rate 250 g/ha): 90; Flatsedge plant response rating ([4]; Rate 500 g/ha): 90; Plant response rating, Flatsedge ([4]; Rate 62 g/ha): 40; Plant response rating, Flatsedge ([4]; Rate 125 g/ha): 90; Plant response rating, Crabgrass [5, 27]: 30; Plant response rating, Crabgrass [5, 28]: 0; Plant response rating, Morningglory [6, 27]: 0; Plant response rating, Morningglory [6, 28]: 0; Plant response rating, Velvetleaf [7, 27]: 0; Plant response rating, Velvetleaf [7, 28]: 0; Plant response rating, Foxtail, Giant [8, 27]: 20; Plant response rating, Foxtail, Giant [8, 28]: 0; Plant response rating, Rice (rice (Oryza saliva) [9]; [27]): 0; Plant response rating, Rice (rice (Oryza saliva) [9]; [28]): 0; Plant response rating, Barnyardgrass [10, 27]: 0; Plant response rating, Barnyardgrass [10, 28]: 0; Plant response rating, Cocklebur [11, 27]: 0; Plant response rating, Cocklebur [11, 28]: 0; Plant response rating, Surinam grass [12, 27]: 0; Plant response rating, Surinam grass [12, 28]: 0; Plant response rating, Pigweed [13, 27]: 100; Plant response rating, Pigweed [13, 28]: 0; Plant response rating, Lambsquarters [14, 27]: 100; Plant response rating, Lambsquarters [14, 28]: 60; Plant response rating, Corn (corn (Zea mays) [15]; [27]): 0; Plant response rating, Corn (corn (Zea mays) [15]; [28]): 0; Plant response rating, Crabgrass [16, 29]: 0; Plant response rating, Crabgrass [16, 30]: 0; Plant response rating, Morningglory [17]: 0; Plant response rating, Velvetleaf [18]: 0; Plant response rating, Foxtail, Giant [19, 29]: 0; Plant response rating, Foxtail, Giant [19, 30]: 0; Plant response rating, Barnyardgrass [20, 29]: 0; Plant response rating, Barnyardgrass [20, 30]: 0; Plant response rating, Wheat [21]: 0; Plant response rating, Wild Oat (wild oat (Avena fatua)): 0; Plant response rating, Surinam grass [22, 29]: 0; Plant response rating, Surinam grass [22, 30]: 0; Plant response rating, Pigweed [23]: 0; Plant response rating, Lambsquarters [24]: 0; Plant response rating, Blackgrass [25, 29]: 0; Plant response rating, Blackgrass [25, 30]: 0; Plant response rating, Corn (corn (Zea mays) [26]; [29]): 0; Plant response rating, Corn (corn (Zea mays) [26]; [30]): 0
